Values quoted from earlier work as cited in patent publication US12421507B2, “Methods and compositions for optochemical control of CRISPR-CAS9” (THE BROAD INSTITUTE, INC., priority 2018, dated 2025).

Experiments:
mammalian DHFR (DHFRts) = settings: cells expressing DHFRts
dystrophin exon 51 = settings: across 48 weeks

## CC[C@H](C(=O)N1CCCC[C@H]1C(=O)O[C@H](CCc1ccc(OC)c(OC)c1)c1cccc(OCCN2CCOCC2)c1)c1cc(OC)c(OC)c(OC)c1 [Shield-1]
Mutants of human FKBP12
  binding to and stabilization of the DD: bind to and stabilize the DD in a dose-dependent manner

## CN(Cc1cnc2nc(N)nc(N)c2n1)c1ccc(C(=O)N[C@@H](CCC(=O)O)C(=O)O)cc1 [methotrexate]
Mammalian DHFR (DHFRts)
  degradation of DHFRts: inhibited degradation of the protein partially

## eteplirsen
Dystrophin exon 51
  average dystrophin positive fibers compared to baseline: 47%
